Test results reported in ChEMBL document CHEMBL1155404, “Synthesis, chiral resolution, and determination of novel furan lignan derivatives with potent anti-tumor activity” (Bioorg Med Chem Lett, 2010).

What was measured:
[1] = Antitumor activity against human QGY7701 cells by MTT assay; type: functional, cell-based
[2] = system: HeLa; experiment: Antitumor activity against human HeLa cells by MTT assay; type: functional, cell-based

O=c1[nH]cc(F)c(=O)[nH]1 [FLUOROURACIL] showed an IC50 [1] of 67.2 µM and an IC50 [2] of 64.2 µM.
